The subject of one experiment is humans. The conditions noted are these: sub-anesthetic doses, cited from earlier work.
Experiment [1] deals with male mice. The conditions noted are these: as previously shown; cited from earlier work.
The subject of the next experiment is mice. To be noted: sub-anesthetic doses; cited from earlier work.
In another experiment the test system is female 129S6/SvEv mice. In words: Elevated plus maze (EPM). The conditions noted are these: 1 week prophylactic drug, learned helplessness stress. The experiment is classed as in vivo, mouse. On the procedure:
The EPM was administered as previously described (58), with the exception that videos were scored using ANY-maze behavioral tracking software (Stoelting Co., Wood Dale, Ill.).
We have previously shown that prophylactic (R,S)-ketamine attenuates helpless behavior in male mice (18). To validate these findings in females, female mice were administered saline, (R,S)-ketamine, or (2R,6R)-HNK one week prior to LH training (FIG. 4A). Two weeks later, mice were tested for escape latency and for depressive- and anxiety-like behaviors in the FST and elevated plus maze (EPM). CFC was again administered following these behavioral assays.

Experiment [2] concerns male mice. In words: Prophylactic efficacy in male mice (immobility in the forced swim test). The experiment is classed as in vivo, mouse.

Like-named read-outs stand apart in the source and are kept apart here.

With `CNC1(c2ccccc2Cl)CCCCC1=O` (racemic) [(R,S)-ketamine, (RS)-2-(2-chlorophenyl)-2-(methylamino)cyclohexanone], the Antidepressant onset in the experiment with humans (humans) was 2 h. Further, the “Duration of antidepressant effect” value with humans is recorded as “up to 2 weeks”. Further, the “Prophylactically effective dose in males” value in the experiment with male mice [1] is listed as 30 mg/kg. Besides, the Antidepressant onset in the experiment with mice is 30 min. For the same compound, in the experiment on female 129S6/SvEv mice (10 mg/kg), the “* (significance), Sal vs. drug, Fisher's PLSD: Time in Closed Arms Average (min 1-6), Elevated Plus Maze” value is “* (* p<0.05)”; the “* (significance), Sal vs. drug, Fisher's PLSD: Time in Open Arms Average (min 1-6), Elevated Plus Maze” value is “* (* p<0.05)”; the “P, Sal vs. drug, Fisher's PLSD: Time in Closed Arms Average (min 1-6), Elevated Plus Maze” value came out at 0.0186; the “P, Sal vs. drug, Fisher's PLSD: Time in Open Arms Average (min 1-6), Elevated Plus Maze” value is 0.0147.
Turning to `N[C@@]1(c2ccccc2Cl)CCC[C@@H](O)C1=O` [(2R,6R)-HNK, (2R,6R)-hydroxynorketamine], the “Prophylactically effective dose in males” value with male mice [2] came to 0.075 mg/kg. In the experiment on female 129S6/SvEv mice (0.025 mg/kg), the “P, Sal vs. drug, Fisher's PLSD: Time in Closed Arms Average (min 1-6), Elevated Plus Maze” value is 0.3285 and the “P, Sal vs. drug, Fisher's PLSD: Time in Open Arms Average (min 1-6), Elevated Plus Maze” value was 0.9855.

(Values after patent publication US11491120B2, “Pharmacological prophylactics against stress-induced affective disorders in females” (The Trustees of Columbia University in the City of New York, priority 2017, dated 2022).)
